# Assays:
# Test in all cases: relative viability (nuclei count vs DMSO), 5 days (fraction); higher = more cells survive
# NCI-H1563 = test system: NCI-H1563
# Outline: (§1)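 One day after seeding in 1536-well plates, lung cancer cell lines were dosed by pin tool. Dosing was either single-drug or a fixed anchor-drug dose plus five library-drug doses (not always all listed) in √10 steps. After 5 days, nuclei were stained in one fix-and-stain step and counted on 4× images, and relative viability is the nuclei count of treated wells over that of vehicle wells, given as the median of duplicate plates.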
# NCI-H1648 = test system: NCI-H1648
# Outline: as §1
# NCI-H2342 = test system: NCI-H2342
# Outline: as §1
# NCI-H522 = test system: NCI-H522
# Outline: as §1
# SW 900 = test system: SW 900
# Outline: as §1
# A549 = test system: A549
# Outline: as §1
# Calu-6 = test system: Calu-6
# Outline: as §1
# EBC-1 = test system: EBC-1
# Outline: as §1
# IA-LM = test system: IA-LM
# Outline: as §1
# NCI-H1299 = test system: NCI-H1299
# Outline: as §1
# NCI-H1703 = test system: NCI-H1703
# Outline: as §1
smiles,measurement,setting,value
O=c1[nH]c2ccccc2n1C1CCN(CCCC(c2ccc(F)cc2)c2ccc(F)cc2)CC1 [Pimozide] + Nc1nc2[nH]cc(CCc3ccc(C(=O)N[C@@H](CCC(=O)O)C(=O)O)cc3)c2c(=O)[nH]1 [Pemetrexed] (partner 0.2 µM),relative viability,NCI-H1563; first compound 0.08 µM,0.606
same,relative viability,NCI-H1563; first compound 0.253 µM,0.849
same,relative viability,NCI-H1563; first compound 0.8 µM,0.745
same,relative viability,NCI-H1563; first compound 2.53 µM,0.781
same,relative viability,NCI-H1563; first compound 8 µM,0.734
same,relative viability,NCI-H1648; first compound 0.08 µM,0.818
same,relative viability,NCI-H1648; first compound 0.8 µM,0.573
same,relative viability,NCI-H1648; first compound 2.53 µM,0.673
same,relative viability,NCI-H1648; first compound 8 µM,0.612
same,relative viability,NCI-H2342; first compound 0.08 µM,0.796
same,relative viability,NCI-H2342; first compound 0.253 µM,0.757
same,relative viability,NCI-H2342; first compound 0.8 µM,0.634
same,relative viability,NCI-H2342; first compound 2.53 µM,0.749
same,relative viability,NCI-H2342; first compound 8 µM,0.752
same,relative viability,NCI-H522; first compound 0.08 µM,1.04
same,relative viability,NCI-H522; first compound 0.253 µM,0.848
same,relative viability,NCI-H522; first compound 0.8 µM,0.832
same,relative viability,NCI-H522; first compound 2.53 µM,0.818
same,relative viability,NCI-H522; first compound 8 µM,0.904
same,relative viability,SW 900; first compound 0.08 µM,0.483
same,relative viability,SW 900; first compound 0.253 µM,0.465
same,relative viability,SW 900; first compound 2.53 µM,0.447
same,relative viability,SW 900; first compound 8 µM,0.418
O=C(O)CCCCC(CCSCc1ccccc1)SCc1ccccc1 (stereo not drawn) [CPI-613] + O=C(c1cc(Cc2n[nH]c(=O)c3ccccc23)ccc1F)N1CCN(C(=O)C2CC2)CC1 [Olaparib] (partner 8 µM),relative viability,A549; first compound 5 µM,0.301
same,relative viability,A549; first compound 15.81 µM,0.371
same,relative viability,A549; first compound 50 µM,0.301
same,relative viability,A549; first compound 158.11 µM,0.335
same,relative viability,A549; first compound 500 µM,0.327
same,relative viability,Calu-6; first compound 5 µM,0.525
same,relative viability,Calu-6; first compound 50 µM,0.521
same,relative viability,Calu-6; first compound 158.11 µM,0.433
same,relative viability,Calu-6; first compound 500 µM,0.401
same,relative viability,EBC-1; first compound 5 µM,0.698
same,relative viability,EBC-1; first compound 15.81 µM,0.33
same,relative viability,EBC-1; first compound 50 µM,0.589
same,relative viability,EBC-1; first compound 158.11 µM,0.512
same,relative viability,EBC-1; first compound 500 µM,0.49
same,relative viability,IA-LM; first compound 5 µM,0.881
same,relative viability,IA-LM; first compound 15.81 µM,0.751
same,relative viability,IA-LM; first compound 50 µM,0.866
same,relative viability,IA-LM; first compound 158.11 µM,0.537
same,relative viability,IA-LM; first compound 500 µM,0.656
same,relative viability,NCI-H1299; first compound 5 µM,0.942
same,relative viability,NCI-H1299; first compound 15.81 µM,1.01
same,relative viability,NCI-H1299; first compound 50 µM,0.903
same,relative viability,NCI-H1299; first compound 158.11 µM,0.909
same,relative viability,NCI-H1299; first compound 500 µM,0.968
same,relative viability,NCI-H1648; first compound 5 µM,0.878
same,relative viability,NCI-H1648; first compound 15.81 µM,0.976
same,relative viability,NCI-H1648; first compound 50 µM,1.01
same,relative viability,NCI-H1648; first compound 158.11 µM,0.255
same,relative viability,NCI-H1648; first compound 500 µM,0.0437
same,relative viability,NCI-H1703; first compound 5 µM,0.411
same,relative viability,NCI-H1703; first compound 15.81 µM,0.453
same,relative viability,NCI-H1703; first compound 50 µM,0.499
same,relative viability,NCI-H1703; first compound 158.11 µM,0.36
same,relative viability,NCI-H1703; first compound 500 µM,0.403
same,relative viability,NCI-H2342; first compound 5 µM,0.472
same,relative viability,NCI-H2342; first compound 15.81 µM,0.432
same,relative viability,NCI-H2342; first compound 50 µM,0.5
same,relative viability,NCI-H2342; first compound 158.11 µM,0.461
same,relative viability,NCI-H2342; first compound 500 µM,0.412
same,relative viability,NCI-H522; first compound 5 µM,0.589
same,relative viability,NCI-H522; first compound 15.81 µM,0.533
same,relative viability,NCI-H522; first compound 50 µM,0.681
same,relative viability,NCI-H522; first compound 158.11 µM,0.453
same,relative viability,NCI-H522; first compound 500 µM,0.346
same,relative viability,SW 900; first compound 5 µM,0.873
same,relative viability,SW 900; first compound 50 µM,0.823
same,relative viability,SW 900; first compound 158.11 µM,0.33
same,relative viability,SW 900; first compound 500 µM,0.0124
O=c1[nH]c2ccccc2n1C1CCN(CCCC(c2ccc(F)cc2)c2ccc(F)cc2)CC1 [Pimozide] + O=C(CCCCCCC(=O)Nc1ccccc1)NO [Vorinostat] (partner 1 µM),relative viability,IA-LM; first compound 0.08 µM,0.931
same,relative viability,IA-LM; first compound 0.253 µM,0.923
same,relative viability,IA-LM; first compound 2.53 µM,0.913
same,relative viability,IA-LM; first compound 8 µM,0.99
same,relative viability,NCI-H1648; first compound 0.08 µM,0.315
same,relative viability,NCI-H1648; first compound 0.8 µM,0.527
same,relative viability,NCI-H1648; first compound 2.53 µM,0.228
same,relative viability,NCI-H1648; first compound 8 µM,0.347
same,relative viability,NCI-H2342; first compound 0.08 µM,0.778
same,relative viability,NCI-H2342; first compound 0.253 µM,0.77
same,relative viability,NCI-H2342; first compound 0.8 µM,0.658
same,relative viability,NCI-H2342; first compound 2.53 µM,0.75
same,relative viability,NCI-H2342; first compound 8 µM,0.696
same,relative viability,NCI-H522; first compound 0.08 µM,0.848
same,relative viability,NCI-H522; first compound 0.253 µM,0.908
same,relative viability,NCI-H522; first compound 0.8 µM,0.673
same,relative viability,NCI-H522; first compound 2.53 µM,0.817
same,relative viability,NCI-H522; first compound 8 µM,0.81
same,relative viability,SW 900; first compound 0.08 µM,0.655
same,relative viability,SW 900; first compound 0.253 µM,0.45
same,relative viability,SW 900; first compound 2.53 µM,0.509
same,relative viability,SW 900; first compound 8 µM,0.3

# Reference: the supplement of paper PMC10307832
